Reference: patent US4039663A, “Daunomycins, process for their uses and intermediates” (Societa' Farmaceutici Italia S.p.A., priority 1975, dated 1977)
Converted amounts (≈) assume the structure as drawn. Read-outs that look alike come from different tables or passages of the source.

Tests used:
ASCITES SARCOMA 180 = test: Action on ascites sarcoma 180 in mice; format: in vivo, mice (Swiss CD 1); settings: for Average Survival Time (%): 1 day after inoculation, untreated = 100%
Description: The tests were carried out on groups of 10 female mice (Swiss CD 1). The compounds under examination were administered intraperitoneally in varying doses to the test animals 1 day after intraperitoneal inoculation with 1 × 10^6 tumor cells per animal. The average survival time is given in Table 1 as a percentage of the survival time of untreated animals, which is arbitrarily designated as 100%. Also given in Table 1 are the number of long term survivors.

oncogenic viruses = test: Cell transformation induced by oncogenic viruses (summary); format: cell-based
Description: (§1) The antitumor activity of the novel antibiotic compounds of the invention, i.e., 4'-epi-daunomycin (VI) and 4'-epidaunomycin, β-anomer, (VII) was evaluated on several transplanted tumors in mice, and in in vitro tests, in comparison with the known antitumor agent daunomycin (IV).

[1] = test system: single myocardial cells isolated from the hearts of newborn mice
Description: The cardiotoxic activity of compound (VI) was evaluated in vitro on single myocardial cells isolated by trypsinization from the hearts of newborn mice (Necco A., Dasdia T. IRCS, 2: 1293, 1974). After 3-4 days, the cell cultures, showing clusters of beating cells, are studied both as to frequency and rhythym.

[2] = test system: a number of experimental tumors; test: Antitumor activity on experimental tumors in mice (summary); format: in vivo; settings: mean survival time, non-toxic doses
Description: as §1

cultured cells = test: Inhibition of cell mitosis and proliferation in cultured cells (summary); format: cell-based; settings: cultured cells in vitro
Description: as §1

Moloney Sarcoma Virus = test: Foci formation by Moloney Sarcoma Virus in mouse embryo fibroblast cultures; format: cell-based; settings: for activity at 0.0062 µg/mL / activity at 0.025 µg/mL / activity at 0.1 µg/mL / activity at 0.4 µg/mL / IC50: Fibroblast, 72 h, 3 days treatment; for activity at 0.0062 µg/mL: 0.0062 μg/ml; for activity at 0.0062 µg/mL / activity at 0.025 µg/mL / activity at 0.1 µg/mL / activity at 0.4 µg/mL: read-out: Foci Formation (% of controls); for activity at 0.025 µg/mL: 0.025 μg/ml; for activity at 0.1 µg/mL: 0.1 μg/ml; for activity at 0.4 µg/mL: 0.4 μg/ml; for IC50: read-out: Foci Formation ID50 (A); for B/A: ratio ID50 cell proliferation (B) / ID50 foci formation (A), 4320 min
Description: (§2) The test compounds were evaluated on mouse embryo fibroblast cultures infected with MSV. After a treatment of three days, the inhibiting doses (ID50) were evaluated on cell proliferation and on MSV foci formation.
(§3) Effect of compounds (VI and (VII) on foci formation and on cell proliferation in cultured mice fibroblasts infected with Moloney Sarcoma Virus. (3 days treatment)

HeLa cells [3] = test: Micotic index of cultured HeLa cells at different exposure times; format: cell-based; settings: Homo sapiens; for activity at 0.025 µg/mL: 0.025 μg/ml; for activity at 0.05 µg/mL: 0.05 μg/ml; for activity at 0.1 µg/mL: 0.1 μg/ml; for activity at 0.25 µg/mL: 0.25 μg/ml; for activity at 0.5 µg/mL: 0.5 μg/ml; for activity at 1 µg/mL: 1 μg/ml
Excerpt: (§4) Tests in vitro on the effect of compounds (VI) and (VII) on the micotic index and the proliferative activity of cultured HeLa cells at different exposure times. The results in Table 4 are expressed as a percent of the untreated controls. The ID50 represents the dose which gives a 50% inhibition of colonies.

TR[…] LEUKEMIA = test: Transplanted Gross leukemia in mice; format: in vivo, Inbred C3 H female mice; settings: first to fifth day, control = 100
Excerpt: Inbred C3 H female mice were intravenously inoculated with a suspension of leukemia lymphonodes and spleen cells (2.5 × 10^6 leukemia cells/mouse) and treated, intravenously, from the first to the fifth day after inoculation with the compounds under examination.

HeLa cells [4] = test: Proliferative activity (colony counts) of cultured HeLa cells at different exposure times; format: cell-based; settings: Homo sapiens; for activity at 0.025 µg/mL: 0.025 μg/ml; for activity at 0.05 µg/mL: 0.05 μg/ml; for activity at 0.1 µg/mL: 0.1 μg/ml; for IC50: read-out: ID50 (50% inhibition of colonies); for activity at 0.25 µg/mL: 0.25 μg/ml; for activity at 0.5 µg/mL: 0.5 μg/ml; for activity at 1 µg/mL: 1 μg/ml
Excerpt: as §4

[5] = test system: mouse embryo fibroblast cultures infected with MSV; test: Cell proliferation in cultured mice fibroblasts infected with Moloney Sarcoma Virus; format: cell-based; settings: Mus musculus, Fibroblast, 72 h, 3 days treatment, read-out: Cell Proliferation (% of controls); for activity at 0.0062 µg/mL: 0.0062 μg/ml; for activity at 0.025 µg/mL: 0.025 μg/ml; for activity at 0.1 µg/mL: 0.1 μg/ml; for activity at 0.4 µg/mL: 0.4 μg/ml
Description: as §2, §3

[6] = as above; format: cell-based, mouse; settings: mouse, embryo fibroblasts; 3 days treatment; read-out: Cell Proliferation ID50 (B)
Description: as §2, §3

[7] = 2h, value marked * Metaphasic block

## COc1cccc2c1C(=O)c1c(O)c3c(c(O)c1C2=O)C[C@@](O)(C(C)=O)C[C@@H]3O[C@H]1C[C@H](N)[C@@H](O)[C@H](C)O1 [VI, 7-0-(3'-amino-2',3',6'-trideoxy-α-L-arabinohexopyranosyl)-daunomycinone]
ASCITES SARCOMA 180; 0.22 mg/kg i.p.
  Long Term Survivors after 60 days: 1/10
  Average Survival Time (%): 111.1%
ASCITES SARCOMA 180; 1.1 mg/kg i.p.
  Long Term Survivors after 60 days: 1/10
  Average Survival Time (%): 120.8%
ASCITES SARCOMA 180; 5.7 mg/kg i.p.
  Long Term Survivors after 60 days: 0/10
  Average Survival Time (%): 174.5%
Oncogenic viruses
  activity on cell transformation induced by oncogenic viruses: substantial activity on cell transformation induced by oncogenic viruses
[1]
  cardiotoxic activity: lower than that of daunomycin (IV)
[2]
  antitumor activity in mice: increase in the mean survival time at non-toxic doses
Cultured cells
  inhibition of cell mitosis and proliferative activity: powerful inhibitors of cell mitosis and proliferative activity in cultured cells in vitro
Moloney Sarcoma Virus
  activity at 0.0062 µg/mL: 51%
  activity at 0.025 µg/mL: 0%
  activity at 0.1 µg/mL: 0%
  activity at 0.4 µg/mL: 0%
  IC50: 6 ng/mL (≈ 0.0114 µM)
  B/A: 2.1
HeLa cells [3]; [7]
  activity at 0.025 µg/mL: 226%
  activity at 0.05 µg/mL: 189%
HeLa cells [3]; 4h
  activity at 0.025 µg/mL: 100%
  activity at 0.05 µg/mL: 103%
  activity at 0.1 µg/mL: 140%
HeLa cells [3]; 8h
  activity at 0.025 µg/mL: 117%
  activity at 0.05 µg/mL: 122%
  activity at 0.1 µg/mL: 0%
HeLa cells [3]; 2h
  activity at 0.1 µg/mL: 79%
TR[…] LEUKEMIA; 1.5 mg/kg daily i.v.
  Average Survival Time (%): 115%
TR[…] LEUKEMIA; 2.25 mg/kg daily i.v.
  Average Survival Time (%): 143%
TR[…] LEUKEMIA; 3 mg/kg daily i.v.
  Average Survival Time (%): 162%
TR[…] LEUKEMIA; 3.75 mg/kg daily i.v.
  Average Survival Time (%): 122%
TR[…] LEUKEMIA; 4.5 mg/kg daily i.v.
  Average Survival Time (%): 120%
HeLa cells [4]; 2h
  activity at 0.025 µg/mL: 113%
  activity at 0.05 µg/mL: 115%
  activity at 0.1 µg/mL: 77%
HeLa cells [4]; 8h
  activity at 0.025 µg/mL: 88%
  activity at 0.05 µg/mL: 56%
  activity at 0.1 µg/mL: 23%
HeLa cells [4]; 24h
  activity at 0.025 µg/mL: 48%
  activity at 0.05 µg/mL: 23%
  activity at 0.1 µg/mL: 3%
HeLa cells [4]; 2h exposure
  IC50: 0.16 µg/mL (≈ 0.303 µM)
HeLa cells [4]; 8h exposure
  IC50: 0.056 µg/mL (≈ 0.106 µM)
HeLa cells [4]; 24h exposure
  IC50: 0.027 µg/mL (≈ 0.0512 µM)
[5]
  activity at 0.0062 µg/mL: 75%
  activity at 0.025 µg/mL: 23%
  activity at 0.1 µg/mL: 14%
  activity at 0.4 µg/mL: 1%
[6]
  CC50 at 72 h: 0.013 µg/mL (≈ 0.0246 µM)

## COc1cccc2c1C(=O)c1c(O)c3c(c(O)c1C2=O)C[C@@](O)(C(C)=O)C[C@@H]3O[C@@H]1C[C@H](N)[C@@H](O)[C@H](C)O1 [VII, 7-O-(3'-amino-2',3',6'-trideoxy-β-L-arabinohexopyranosyl)-daunomycinone]
ASCITES SARCOMA 180; 0.26 mg/kg i.p.
  Long Term Survivors after 60 days: 0/10
  Average Survival Time (%): 96.6%
ASCITES SARCOMA 180; 1.3 mg/kg i.p.
  Long Term Survivors after 60 days: 1/10
  Average Survival Time (%): 114.8%
ASCITES SARCOMA 180; 6.7 mg/kg i.p.
  Long Term Survivors after 60 days: 1/10
  Average Survival Time (%): 118.6%
Oncogenic viruses
  activity on cell transformation induced by oncogenic viruses: substantial activity on cell transformation induced by oncogenic viruses
[2]
  antitumor activity in mice: increase in the mean survival time at non-toxic doses
Cultured cells
  inhibition of cell mitosis and proliferative activity: powerful inhibitors of cell mitosis and proliferative activity in cultured cells in vitro
Moloney Sarcoma Virus
  activity at 0.0062 µg/mL: 48%
  activity at 0.025 µg/mL: 44%
  activity at 0.1 µg/mL: 5%
  activity at 0.4 µg/mL: 0%
  IC50: 10 ng/mL (≈ 0.019 µM)
  B/A: 6.4
HeLa cells [3]; 2h
  activity at 0.25 µg/mL: 137%
  activity at 0.5 µg/mL: 95%
  activity at 1 µg/mL: 52%
HeLa cells [3]; 4h
  activity at 0.25 µg/mL: 103%
  activity at 0.5 µg/mL: 67%
  activity at 1 µg/mL: 40%
HeLa cells [3]; 8h
  activity at 0.25 µg/mL: 85%
  activity at 0.5 µg/mL: 88%
  activity at 1 µg/mL: 0%
TR[…] LEUKEMIA; 1.5 mg/kg daily i.v.
  Average Survival Time (%): 106%
TR[…] LEUKEMIA; 2.25 mg/kg daily i.v.
  Average Survival Time (%): 102%
TR[…] LEUKEMIA; 3 mg/kg daily i.v.
  Average Survival Time (%): 121%
HeLa cells [4]; 2h
  activity at 0.25 µg/mL: 108%
  activity at 0.5 µg/mL: 101%
  activity at 1 µg/mL: 98%
HeLa cells [4]; 8h
  activity at 0.25 µg/mL: 86%
  activity at 0.5 µg/mL: 37%
  activity at 1 µg/mL: 17%
HeLa cells [4]; 24h
  activity at 0.25 µg/mL: 70%
  activity at 0.5 µg/mL: 18%
  activity at 1 µg/mL: 6%
HeLa cells [4]; 2h exposure
  IC50: > 1 µg/mL
HeLa cells [4]; 8h exposure
  IC50: 0.47 µg/mL (≈ 0.891 µM)
HeLa cells [4]; 24h exposure
  IC50: 0.33 µg/mL (≈ 0.626 µM)
[5]
  activity at 0.0062 µg/mL: 87%
  activity at 0.025 µg/mL: 80%
  activity at 0.1 µg/mL: 28%
  activity at 0.4 µg/mL: 14%
[6]
  CC50 at 72 h: 0.064 µg/mL (≈ 0.121 µM)

## COc1cccc2c1C(=O)c1c(O)c3c(c(O)c1C2=O)C[C@@](O)(C(C)=O)C[C@@H]3O[C@H]1C[C@H](N)[C@H](O)[C@H](C)O1 [IV, 7-O-(3'-amino-2',3',6'-trideoxy-α-L-lyxohexopyranosyl)-daunomycin-one, reference compound]
Moloney Sarcoma Virus
  IC50: 6 ng/mL (≈ 0.0114 µM)
  B/A: 1.4
HeLa cells [4]; 2h exposure
  IC50: 0.098 µg/mL (≈ 0.186 µM)
HeLa cells [4]; 8h exposure
  IC50: 0.036 µg/mL (≈ 0.0682 µM)
HeLa cells [4]; 24h exposure
  IC50: 0.021 µg/mL (≈ 0.0398 µM)
[6]
  CC50 at 72 h: 0.0086 µg/mL (≈ 0.0163 µM)
